Measurements: patent publication US6710048B2, “Pyrazine derivatives as modulators of tyrosine kinases” (Ortho-McNeil Pharmaceutical, Inc., priority 2000, dated 2004)

Tests used:
Casein Kinase 1 = molecular target: T1, Casein Kinase 1 (Rattus norvegicus, UniProt Q06486); assay: Casein Kinase 1 selectivity assay; assay type: biochemical; details: Table 4 kinase selectivity; read-out: IC50, Assay 8 Casein Kinase 1
T1 construct: a truncation at amino acid 318 of the C-terminal portion of the rat CK1 delta isoform produced in E.coli; purchased New England Biolabs 6030; host or cells: E. coli
T1 sequence (Q06486 1-317 limits assumed): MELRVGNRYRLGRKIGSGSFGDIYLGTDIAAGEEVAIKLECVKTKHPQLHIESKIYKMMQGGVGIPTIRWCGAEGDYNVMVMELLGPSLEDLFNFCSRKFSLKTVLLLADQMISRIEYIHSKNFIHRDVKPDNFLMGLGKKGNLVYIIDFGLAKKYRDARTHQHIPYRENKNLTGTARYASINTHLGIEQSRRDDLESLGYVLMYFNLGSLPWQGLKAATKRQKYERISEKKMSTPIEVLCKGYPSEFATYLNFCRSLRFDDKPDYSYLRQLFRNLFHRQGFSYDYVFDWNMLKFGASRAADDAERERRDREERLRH
Experimental: (§1) Assays to test compound inhibition of other kinases were preformed using methods that measure the amount of phosphorylation of a biotinylated peptide substrate. Biotinylated peptide substrates were selected from the literature as appropriate for the enzyme being evaluated. […] Assay conditions vary slightly for each protein kinase, for example, insulin receptor kinase requires 10 mM MnCl2 for activity and Calmodulin-dependent protein kinase requires calmodulin and 2 mM CaCl2. The reaction mixture was dispensed into the wells of a streptavidin coated Flashplate and 1 μl drug stock in 100% DMSO was added to a 100 μl reaction volume resulting in a final concentration of 1% DMSO in the reaction. Enzyme was diluted in 50 mM Tris-HCl pH=8.0, 0.1% BSA and added to each well. The reaction was incubated for one hour at 30° C. in the presence of compound. After one hour the reaction mix was aspirated from the plate and the plate was washed with PBS containing 100 mM EDTA. The plate was read on a scintillation counter to determine ^33P-γ-ATP incorporated into the immobilized peptide. Test compounds were assayed in duplicate at 8 concentrations [100 tM, 10 μM, 1 μM, 100 nM, 10 nM, 1 nM, 100 μM, 10 μM]. A maximum and minimum signal for the assay was determined on each plate. The IC50 was calculated from the dose response curve of the percent inhibition of the maximum signal in the assay according to the formula [max signal−background/test compound signal−background (100)=% inhibition] by graphing the percent inhibition against the log concentration of test compound. Known inhibitor compounds appropriate for the kinase being assayed were also included on each plate.
(§2) VEGF-R (vascular endothelial growth factor receptor-2) is a fusion protein containing a polyhistidine tag at the N-terminus followed by amino acids 786-1343 of the rat VEGF-R2 kinase domain (GenBank Accession #U93306). CDK1 (cyclin dependent kinase 1) is isolated from insect cells expressing both the human CDK1 catalytic subunit and its positive regulatory subunit cyclin B (New England Biolabs, Beverly, Mass., Cat. #6020). CDK4 (cyclin dependent kinase 4) contains amino acids 769 to 921 of the mouse […] protein found in the GST-retinoblastoma protein construct (Santa Cruz Biotechnology, Santa Cruz, Calif.; Cat. #SC-4112). Insulin Receptor Kinase consists of residues 941-1313 of the cytoplasmic domain of the beta-subunit of the human insulin receptor (BIOMOL, Plymouth Meeting, Pa., Cat. #SE-195). Protein Kinase A is the catalytic subunit of cAMP dependent protein kinase-A purified from bovine heart (Upstate Biotech, Lake Placid, N.Y., Cat#14-114). PKC (protein kinase-C) is the gamma or beta isoform of the human protein produced in insect cells (BIOMOL, Plymouth Meeting, Pa., Cat. #SE-143). Casein Kinase 1 is a truncation at amino acid 318 of the C-terminal portion of the rat CK1 delta isoform produced in E.coli (New England Biolabs, Beverly, Mass., Cat. #6030). Casein Kinase 2 includes the alpha and beta subunits of the human CK2 protein produced in E.coli (New England Biolabs, Beverly, Mass., Cat. #6010). Calmodulin Kinase (calmodulin-dependent protein kinase 2) is a truncated version of the alpha subunit of the rat protein produced in insect cells (New England Biolabs, Beverly, Mass., Cat. #6060). Glycogen Synthase Kinase-3 is the beta isoform of the rabbit enzyme produced in E. coli (New England Biolabs, Beverly, Mass., Cat. #6040). MAP Kinase is the rat ERK-2 isoform containing a polyhistidine tag at the N-terminus produced in E. coli. and activated by phosphorylation with MEK1 prior to purification (BIOMOL, Plymouth Meeting, Pa., Cat. #SE-137). EGFR (epidermal growth factor receptor) is purified from human A431 cell membranes (Sigma, St. Louis, Mo., Cat.# E3641). PDGF-R (platelet derived growth factor receptor) is a fusion protein containing a polyhistidine tag at the N-terminus followed by nucleotides 1874-3507 of the human PDGF-R beta subunit kinase domain (Accession #M21616). […]

[1] = molecular target: T2, Glycogen Synthase Kinase-3 (beta isoform) (Oryctolagus cuniculus, UniProt G1T8E2); assay: GSK-3 kinase selectivity assay; assay type: biochemical, rabbit; details: Table 4 kinase selectivity; read-out: IC50, Assay 11 GSK-3
T2 construct: purchased New England Biolabs 6040; host or cells: E. coli
Experimental: as §1, §2

MAP Kinase ERK-2 = molecular target: T3, MAP Kinase ERK-2 (Rattus norvegicus, UniProt P63086); assay: MAP Kinase ERK-2 selectivity assay; assay type: biochemical; details: Table 4 kinase selectivity; read-out: IC50, Assay 12 MAP Kinase ERK-2
T3 construct: polyhistidine (N); purchased BIOMOL SE-137; host or cells: E. coli
Experimental: as §1, §2

Protein Kinase A = molecular target: T4, Protein Kinase A (Bos taurus, UniProt P00517); assay: Protein Kinase A selectivity assay; assay type: biochemical, bovine; details: Table 4 kinase selectivity; read-out: IC50, Assay 5 Protein Kinase A
T4 construct: purified from bovine heart; purchased Upstate Biotech 14-114; host or cells: bovine heart
Experimental: as §1, §2

PKC-β2 = molecular target: T5, PKC-β2 (Homo sapiens, UniProt P05771); assay: PKC-β2 kinase selectivity assay; assay type: biochemical; details: Table 4 kinase selectivity; read-out: IC50, Assay 7 PKC-β2
T5 construct: purchased BIOMOL SE-143; host or cells: insect cells
Experimental: as §1, §2

Casein Kinase 2 = molecular target: T6, Casein Kinase 2 (Homo sapiens, UniProt P68400); assay: Casein Kinase 2 selectivity assay; assay type: biochemical; details: Table 4 kinase selectivity; 10 = approximate value; read-out: IC50, Assay 9 Casein Kinase 2
T6 construct: purchased New England Biolabs 6010; host or cells: E. coli
Experimental: as §1, §2

[2] = molecular target: T7, Calmodulin Kinase (calmodulin-dependent protein kinase 2) (Rattus norvegicus, UniProt P11275); assay: Calmodulin Kinase selectivity assay; assay type: biochemical; details: Table 4 kinase selectivity; read-out: IC50, Assay 10 Calmodulin Kinase
T7 construct: a truncated version of the alpha subunit of the rat protein; purchased New England Biolabs 6060; host or cells: insect cells

PKC-γ = molecular target: T8, PKC-γ (Homo sapiens, UniProt P05129); assay: PKC-γ kinase selectivity assay; assay type: biochemical; details: Table 4 kinase selectivity; read-out: IC50, Assay 6 PKC-γ
T8 construct: purchased BIOMOL SE-143; host or cells: insect cells
Experimental: as §1, §2

T5 sequence (P05771 1-673 isoform P05771-2): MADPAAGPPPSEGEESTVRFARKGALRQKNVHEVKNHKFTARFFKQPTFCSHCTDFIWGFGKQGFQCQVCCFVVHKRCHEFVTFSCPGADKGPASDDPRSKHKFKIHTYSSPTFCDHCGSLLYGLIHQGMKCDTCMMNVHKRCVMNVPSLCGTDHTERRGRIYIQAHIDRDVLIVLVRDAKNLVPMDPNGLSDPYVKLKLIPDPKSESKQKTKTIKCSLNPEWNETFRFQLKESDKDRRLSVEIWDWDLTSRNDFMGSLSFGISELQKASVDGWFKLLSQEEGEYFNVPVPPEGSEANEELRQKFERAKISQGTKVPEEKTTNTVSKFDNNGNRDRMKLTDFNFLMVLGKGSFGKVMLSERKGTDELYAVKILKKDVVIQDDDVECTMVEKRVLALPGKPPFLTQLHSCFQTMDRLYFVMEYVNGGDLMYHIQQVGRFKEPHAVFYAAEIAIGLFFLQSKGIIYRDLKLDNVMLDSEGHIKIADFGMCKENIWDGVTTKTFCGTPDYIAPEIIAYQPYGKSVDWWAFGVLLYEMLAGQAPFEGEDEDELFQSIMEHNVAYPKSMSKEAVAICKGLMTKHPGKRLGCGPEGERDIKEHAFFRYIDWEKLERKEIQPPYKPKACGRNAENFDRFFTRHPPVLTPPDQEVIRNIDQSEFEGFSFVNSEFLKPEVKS
T2 sequence (G1T8E2 1-432): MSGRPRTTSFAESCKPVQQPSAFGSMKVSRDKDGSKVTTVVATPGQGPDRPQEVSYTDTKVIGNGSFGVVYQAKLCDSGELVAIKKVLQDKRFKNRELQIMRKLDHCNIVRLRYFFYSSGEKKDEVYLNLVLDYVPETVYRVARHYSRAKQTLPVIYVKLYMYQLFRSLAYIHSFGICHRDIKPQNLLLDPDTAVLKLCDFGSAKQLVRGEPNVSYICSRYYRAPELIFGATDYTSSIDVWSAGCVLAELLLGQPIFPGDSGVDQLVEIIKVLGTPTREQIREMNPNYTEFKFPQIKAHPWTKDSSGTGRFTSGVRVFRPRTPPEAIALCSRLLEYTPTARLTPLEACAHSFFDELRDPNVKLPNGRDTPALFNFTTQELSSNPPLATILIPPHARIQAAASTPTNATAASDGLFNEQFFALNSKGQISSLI
T7 sequence (P11275 1-325): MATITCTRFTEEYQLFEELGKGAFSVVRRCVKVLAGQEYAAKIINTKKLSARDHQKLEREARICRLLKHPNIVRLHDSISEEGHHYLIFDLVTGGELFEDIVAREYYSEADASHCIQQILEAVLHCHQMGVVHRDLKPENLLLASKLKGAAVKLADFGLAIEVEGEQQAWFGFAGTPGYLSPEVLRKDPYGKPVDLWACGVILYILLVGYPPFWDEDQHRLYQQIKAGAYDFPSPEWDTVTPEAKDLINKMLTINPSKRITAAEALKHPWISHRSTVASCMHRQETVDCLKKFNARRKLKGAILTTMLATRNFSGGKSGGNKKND
T6 sequence (P68400 whole entry): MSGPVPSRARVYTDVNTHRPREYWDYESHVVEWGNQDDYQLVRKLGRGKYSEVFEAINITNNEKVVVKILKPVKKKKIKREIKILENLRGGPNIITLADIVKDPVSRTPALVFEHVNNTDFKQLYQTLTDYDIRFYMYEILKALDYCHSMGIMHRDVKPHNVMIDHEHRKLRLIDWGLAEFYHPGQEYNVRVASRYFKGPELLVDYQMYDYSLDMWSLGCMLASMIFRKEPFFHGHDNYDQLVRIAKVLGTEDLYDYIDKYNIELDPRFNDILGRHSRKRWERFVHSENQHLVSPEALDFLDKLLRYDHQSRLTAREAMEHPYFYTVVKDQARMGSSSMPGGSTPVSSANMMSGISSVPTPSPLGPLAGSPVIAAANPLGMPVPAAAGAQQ
T6 sequence (P67870 whole entry partner): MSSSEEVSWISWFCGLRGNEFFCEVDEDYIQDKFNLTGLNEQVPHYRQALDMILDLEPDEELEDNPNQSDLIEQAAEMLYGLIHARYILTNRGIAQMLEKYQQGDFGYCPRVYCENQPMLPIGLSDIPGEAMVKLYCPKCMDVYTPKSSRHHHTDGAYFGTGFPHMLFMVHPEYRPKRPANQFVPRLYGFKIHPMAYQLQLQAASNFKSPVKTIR
T3 sequence (P63086 whole entry): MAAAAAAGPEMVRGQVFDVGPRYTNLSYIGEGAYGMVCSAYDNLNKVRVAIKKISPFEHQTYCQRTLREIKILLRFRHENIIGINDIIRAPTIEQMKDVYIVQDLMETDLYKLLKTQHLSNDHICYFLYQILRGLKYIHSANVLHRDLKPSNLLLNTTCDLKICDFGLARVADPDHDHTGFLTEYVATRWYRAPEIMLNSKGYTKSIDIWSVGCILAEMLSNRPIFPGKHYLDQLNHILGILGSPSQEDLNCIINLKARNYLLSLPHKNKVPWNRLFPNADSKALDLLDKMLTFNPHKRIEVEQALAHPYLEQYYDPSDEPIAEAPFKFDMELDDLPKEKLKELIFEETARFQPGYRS

Compound | IC50 (Casein Kinase 1) [µM] | IC50 [1] [µM] | IC50 (MAP Kinase ERK-2) [µM] | IC50 (Protein Kinase A) [µM] | IC50 (PKC-β2) [µM] | IC50 (Casein Kinase 2) [µM] | IC50 [2] [µM] | IC50 (PKC-γ) [µM]
OCCCNc1cncc(-c2cncc(Nc3cccc(Cl)c3)n2)c1 [Cmd 4] | > 100 | 0.478 | > 100 | > 100 | > 100 | > 100 | > 100 | > 100
CN(C)CCCNc1cncc(-c2cncc(Nc3cccc(Cl)c3)n2)c1 [Cmd 35] | > 100 | 8.15 | > 100 | > 100 | > 100 | > 100 | > 100 | 14.5
OCCCCNc1cncc(-c2cncc(Nc3cccc(Cl)c3)n2)c1 [Cmd 32] | – | 4.02 | > 100 | > 100 | > 100 | > 100 | > 100 | > 100
CN(C)CCNc1cncc(-c2cncc(Nc3cccc(Cl)c3)n2)c1 [Cmd 33, N′-[5-[6-[(3-chlorophenyl)amino]pyrazinyl]-3-pyridinyl]-N^2,N^2-dimethyl-1,2-ethanediamine] | > 100 | 11.4 | > 100 | > 100 | > 100 | > 100 | > 100 | 3.96
Clc1cccc(Nc2cncc(-c3cncc(NCCCc4ccncc4)c3)n2)c1 [Cmd 71] | > 100 | 0.159 | > 100 | > 100 | – | > 100 | 4.89 | –
O=C(NCCCO)c1cncc(-c2cncc(Nc3cccc(Cl)c3)n2)c1 [Cmd 39] | > 100 | 0.866 | > 100 | > 100 | > 100 | ~10 | > 100 | > 100

Next, values leading:

IC50 (Casein Kinase 1) [µM] | IC50 [1] [µM] | IC50 (MAP Kinase ERK-2) [µM] | IC50 (Protein Kinase A) [µM] | IC50 (PKC-β2) [µM] | IC50 (Casein Kinase 2) [µM] | IC50 [2] [µM] | IC50 (PKC-γ) [µM] | Compound
5.03 | 0.491 | > 100 | > 100 | 1.75 | 6.35 | 7.55 | 1.36 | Clc1cccc(Nc2cncc(-c3cncc(NCCCN4CCCCC4)c3)n2)c1 [Cmd 73]
6.5 | 0.196 | > 100 | > 100 | – | 7.2 | 15.8 | – | Clc1cccc(Nc2cncc(-c3cncc(NCCCn4cncn4)c3)n2)c1 [Cmd 76]
> 100 | 0.318 | > 100 | > 100 | – | > 100 | > 100 | – | Clc1cccc(Nc2cncc(-c3cncc(NCCCc4cccnc4)c3)n2)c1 [Cmd 72]
5.6 | 0.606 | > 100 | > 100 | – | 8.1 | 27 | – | Clc1cccc(Nc2cncc(-c3cncc(NCCCn4cccn4)c3)n2)c1 [Cmd 75]
